Source: patent US4470840A, “1-Triacontanol plant growth stimulator formulations” (Biochemical Research Corporation, priority 1981, dated 1984)

Tests used:
Assay type in all cases: in vivo
[1] = system: Cucumbers (cv. Straight Eight, Improved White Spine); assay: Field trial: crop yield; settings: for Increase (crop yield) / Fresh wt. (crop yield): cv. Improved White Spine, TRIACON-10, 1-triacontanol 0.25 mg/liter, pH 9.8
Experimental: (§1) Field trials were conducted in Northern Virginia on plots that were replicated at least five items. Plots consisted of single rows of plants in blocks of three or more plots, with treatments being assigned randomly within each block.
Plants were fertilized with the fertilizers described in Table 1, and sprayed at air temperatures listed in the same Table. Spraying was usually avoided under windy conditions to avoid drift.

[2] = system: Hybrid Sweet Corn Seedlings (cv. Silver Queen); assay: Greenhouse trial: dry weight and water uptake of seedlings after foliar spraying
Experimental: (§2) In general, greenhouse trials were conducted as follows: eight to twelve seeds were sown per pot in Peat-Lite® Mix and received an average of 100 ml of water per day. After plants had the third true leaf (average), the various formulations were applied to the leaves as a fine mist at air temperatures listed in Table 1. Temperatures above 20° C., preferably 25°-30° C., are preferred.
(§3) The 1-triacontanol formulation most generally used consisted of a concentrate containing 5 mg of 1-triacontanol dissolved in 1 liter of acetone, with 20 ml of the concentrate being further dissolved to 1 liter with water having a pH between 8 and 10, with over a pH of 11 also being effective. The pH was adjusted with aqueous NaOH and the concentrate added just prior to spraying.
(§4) When other plant growth substances were added to the formulations, these were added either to the concentrate in the polar organic solvent or alternatively in the aqueous solution, depending on the solubility of the plant growth substance. All metal salts were added to the water used to spray the 1-triacontanol formulations. After spraying, preferably about four to nine days or more, plants were harvested with roots, and fresh weights were obtained. Plants were then dried in an oven, preferably at a temperature below 100° C., until constant weight was obtained, and dry weight values were obtained for each plot. Subtraction of the dry weights from the fresh weights gave the water uptake weights (water content) of each plot. The weights of the above mentioned seedlings were compared to the control weights to obtain the percent increases.
(§5) It is particularly advantageous to arrange each of the potted plants in size range categories corresponding to the number of replications used. For example, if five replications are employed, plants are divided into five size categories, normally measured by the height of the plants. Treatments are then assigned randomly within each block (size category). This removes the variation due to plant size for statistical purposes, as is well practiced in the art. The resulting data is analyzed using any appropriate means, which may include the least significant difference method (L.S.D. method), Duncan's multiple range test, as used here (Biometrics, 11: 1 (1955)), or other means.

[3] = system: Field Corn Seedlings (cv. Trojan TXS 94, Pioneer 3780, WF9 X Bear 38); assay: as above; settings: cv. Trojan TXS 94, no metal salt, 1-triacontanol 0.1 mg/liter
Experimental: as §2, §3, §4, §5

[4] = system: Field Corn (cv. Trojan TXS 94); assay: Field trial: crop yield and seed size; settings: 1-triacontanol 0.25 mg/liter; for % increase (wt. of seed) / % increase (wt./15 ears) / Wt. of seed / Wt./15 ears: TRIACON-10, pH 10.4; for Percent increases (size of seeds) / Wt. of treated seed: cv. Trojan TXS 94, 1000 seeds; for Wt. of treated seed: control seed 252
Experimental: as §1
(§6) Plants were fertilized with the fertilizers described in Table 1, and sprayed at air temperatures listed in the same Table. Spraying was usually avoided under windy conditions to avoid drift. In the examples set forth herein, data were treated in a similar manner to those found in the greenhouse trials, with analysis of variance performed for each trial, and the use of a suitable statistical method for the analysis of results, preferably Duncan's multiple range test.

[5] = system: Tomatoes (cv. Ponderosa Red Beefsteak, Red Cherry, Rutgers VF); assay: Field trial: marketable yield and seed size; settings: for Percent increases (size of seeds) / Wt. of treated seed: 100 seeds; for Percent increases (size of seeds) / Wt. of treated seed / Fresh wt. (marketable yield) / Percent increases (marketable yield): 1-triacontanol 0.25 mg/liter; for Wt. of treated seed: control seed 0.32; for Fresh wt. (marketable yield) / Percent increases (marketable yield): pH 9 to 10
Experimental: as §1, §6

[6] = 14-day old seedlings, 1-triacontanol 0.1 mg/liter alone, no plant growth substance (Formulation 2)
[7] = 14-day old seedlings, metal ion 9 mM (none in the last line) with 1-triacontanol 0.1 mg/liter, pH 8 to 10, Formulation 4
[8] = Formulation 4, 1-triacontanol 0.5 mg/liter, 10 mM CaCl2, pH 8.1, test seed first generation (sprayed) vs control first (not sprayed)
[9] = Formulation 4, 1-triacontanol 0.5 mg/liter, 10 mM CaCl2, pH 8.1, test seed second generation (first and second sprayed) vs control second (first and second not sprayed)
[10] = Formulation 4, 1-triacontanol 0.5 mg/liter, 10 mM CaCl2, pH 8.1, test seed second generation (first and second sprayed) vs control second (second was sprayed only)
[11] = Formulation 4, 1-triacontanol 0.5 mg/liter, 10 mM CaCl2, pH 8.1, test seed second generation (first was sprayed only) vs control second (first and second not sprayed)
[12] = cv. Ponderosa Red Beefsteak, CaCl2 5 mM, no IAA
[13] = cv. Ponderosa Red Beefsteak, CaCl2 50 mM, IAA 0.01 mM
[14] = cv. Ponderosa Red Beefsteak, CaCl2 5 mM, no IAA (Formulation 12)
[15] = cv. Ponderosa Red Beefsteak, CaCl2 50 mM, IAA 10 μM (Formulation 16)
[16] = cv. Ponderosa Red Beefsteak, previous year
[17] = cv. Red Cherry, CaCl2 5 mM, no IAA (Formulation 12)
[18] = cv. Red Cherry, CaCl2 50 mM, IAA 10 μM (Formulation 16)
[19] = cv. Rutgers VF, CaCl2 5 mM, no IAA (Formulation 12)
[20] = cv. Rutgers VF, CaCl2 50 mM, IAA 10 μM (Formulation 16)

SMILES: CCCCCCCCCCCCCCCCCCCCCCCCCCCCCCO [1-Triacontanol, 1-triacontanol]
- Increase (crop yield) ([1]; CaCl2 5 mM): +88%
- Fresh wt. (crop yield) ([1]; CaCl2 5 mM, control 9575 g): 17980 g
- Fresh wt. (crop yield) ([1]; CaCl2 50 mM): 11725 g
- Increase (crop yield) ([1]; CaCl2 50 mM): +22%
- Increase over controls (crop yield) ([1]; cv. Straight Eight, previous year, pH 8.7, CaCl2 4.5 mM): 101%
- Increase in dry weight ([2]; 1-triacontanol 0.1 mg/liter, Formulation 4, additive 9 mM (none in the last line)): +21%
- Increases, H2O uptake [2, 6]: +16%
- Increases, dry wt. [2, 6]: +20%
- % increase (dry weight) [2, 7]: +21%
- % increase (water uptake) [2, 7]: +16%
- Dry weight ([2]; 14-day old seedlings, metal ion 9 mM (none in the last line) with 1-triacontanol 0.1 mg/liter, pH 8 to 10, Formulation 4, control 0.86 g): 1.04 g
- Water uptake ([2]; 14-day old seedlings, metal ion 9 mM (none in the last line) with 1-triacontanol 0.1 mg/liter, pH 8 to 10, Formulation 4, control 8.7 g): 10.1 g
- Increases, H2O uptake ([2]; 14-day old seedlings, no metal salt, 1-triacontanol 0.1 mg/liter, Formulation 1 as printed): +16%
- Increases, H2O uptake [2, 8]: +41%
- Increases, dry wt. [2, 8]: +44%
- Increases, H2O uptake [2, 9]: +78%
- Increases, dry wt. [2, 9]: +80%
- Increases, H2O uptake [2, 10]: +46%
- Increases, dry wt. [2, 10]: +41%
- Increases, H2O uptake [2, 11]: +40%
- Increases, dry wt. [2, 11]: +44%
- Increases, dry wt. ([2]; foliar, 0.1 ug/mL): +20%
- Dry wt. increase ([3]; Formulation 4): -3%
- Dry wt. increase ([3]; Formulation 11): -8%
- % increase (wt. of seed) ([4]; CaCl2 1 mM, no IAA): +27%
- % increase (wt./15 ears) ([4]; CaCl2 1 mM, no IAA): +33%
- Wt. of seed ([4]; CaCl2 1 mM, no IAA, control 1740 g): 2211 g
- Wt./15 ears ([4]; CaCl2 1 mM, no IAA, control 1777 g): 2356 g
- % increase (wt. of seed) ([4]; CaCl2 3 mM, IAA 0.01 mM): +34%
- % increase (wt./15 ears) ([4]; CaCl2 3 mM, IAA 0.01 mM): +46%
- Wt. of seed ([4]; CaCl2 3 mM, IAA 0.01 mM): 2342 g
- Wt./15 ears ([4]; CaCl2 3 mM, IAA 0.01 mM): 2950 g
- Percent increases (size of seeds) ([4]; CaCl2 1 mM, no IAA): +18%
- Wt. of treated seed ([4]; CaCl2 1 mM, no IAA): 297 g
- Percent increases (size of seeds) ([4]; CaCl2 3 mM, IAA 0.01 mM): +27%
- Wt. of treated seed ([4]; CaCl2 3 mM, IAA 0.01 mM): 319 g
- Percent increases (size of seeds) [5, 12]: +25%
- Wt. of treated seed [5, 12]: 0.40 g
- Percent increases (size of seeds) [5, 13]: +6%
- Wt. of treated seed [5, 13]: 0.34 g
- Fresh wt. (marketable yield) [5, 14]: 15353 g
- Percent increases (marketable yield) [5, 14]: +38%
- Fresh wt. (marketable yield) [5, 15]: 22283 g
- Percent increases (marketable yield) [5, 15]: +45%
- Early yield over controls [5, 16]: 72%
- Late yield over controls [5, 16]: 67%
- Fresh wt. (marketable yield) [5, 17]: 5679 g
- Percent increases (marketable yield) [5, 17]: +26%
- Fresh wt. (marketable yield) [5, 18]: 6225 g
- Percent increases (marketable yield) [5, 18]: +38%
- Fresh wt. (marketable yield) [5, 19]: 14079 g
- Percent increases (marketable yield) [5, 19]: +7%
- Fresh wt. (marketable yield) [5, 20]: 20880 g
- Percent increases (marketable yield) [5, 20]: +59%
